Data published in ChEMBL document CHEMBL1201862, “PubChem BioAssay data set” (2004).
Calls of active or inactive are those of the source.

Assays:
[1] = target: T1, Endoribonuclease toxin MazF (Escherichia coli K-12, UniProt P0AE70); assay: MazF toxin RNase activators, dose response, biochemical, fluorescence, single-stranded RNA substrate, uHTS hits (AID 588481); assay type: functional
T1 sequence (P0AE70 whole entry): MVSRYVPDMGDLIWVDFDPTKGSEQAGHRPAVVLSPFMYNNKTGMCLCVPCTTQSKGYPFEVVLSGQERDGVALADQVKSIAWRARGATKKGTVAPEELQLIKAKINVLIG

[2] = target: T1, Endoribonuclease toxin MazF; assay: fluorescent RNA oligo signal without MazF, dose response, counter-screen for MazEF activator project, biochemical, fluorescence, single-stranded RNase substrate (AID 588502); assay type: functional
[3] = target: T2, Short transient receptor potential channel 4 (Mus musculus, UniProt Q9QUQ5); assay: mouse TRPC4 channel activators, dose response, cell-based, HEK293 TRPC4/mu-opioid, Fluo-4 calcium (AID 434937); assay type: functional
T2 sequence (Q9QUQ5 whole entry): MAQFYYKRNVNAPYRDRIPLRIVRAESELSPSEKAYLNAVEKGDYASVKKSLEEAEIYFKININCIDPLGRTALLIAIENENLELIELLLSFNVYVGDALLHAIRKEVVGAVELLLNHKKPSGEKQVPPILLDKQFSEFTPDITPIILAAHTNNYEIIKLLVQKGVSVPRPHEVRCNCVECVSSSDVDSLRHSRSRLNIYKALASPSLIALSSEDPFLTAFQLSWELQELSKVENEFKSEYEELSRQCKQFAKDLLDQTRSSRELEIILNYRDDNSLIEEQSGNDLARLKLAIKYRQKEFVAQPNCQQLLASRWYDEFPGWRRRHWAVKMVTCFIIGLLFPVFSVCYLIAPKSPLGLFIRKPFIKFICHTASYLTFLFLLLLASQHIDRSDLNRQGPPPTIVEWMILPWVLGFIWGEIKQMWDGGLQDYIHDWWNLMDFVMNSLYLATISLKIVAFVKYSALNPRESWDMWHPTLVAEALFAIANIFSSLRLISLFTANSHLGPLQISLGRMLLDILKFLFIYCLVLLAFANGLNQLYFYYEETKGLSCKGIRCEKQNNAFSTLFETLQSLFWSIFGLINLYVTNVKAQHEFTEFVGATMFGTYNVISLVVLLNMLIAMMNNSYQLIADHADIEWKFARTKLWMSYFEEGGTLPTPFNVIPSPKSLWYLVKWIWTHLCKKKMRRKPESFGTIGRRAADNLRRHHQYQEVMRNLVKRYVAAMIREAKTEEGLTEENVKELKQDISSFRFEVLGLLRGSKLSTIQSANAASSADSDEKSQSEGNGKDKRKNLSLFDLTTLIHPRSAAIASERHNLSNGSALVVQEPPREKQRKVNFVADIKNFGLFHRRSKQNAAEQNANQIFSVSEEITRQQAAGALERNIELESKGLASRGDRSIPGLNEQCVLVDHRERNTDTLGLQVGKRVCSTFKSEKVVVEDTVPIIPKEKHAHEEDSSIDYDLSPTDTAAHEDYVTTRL

Cytochrome P450 2C19 = Cytochrome P450 2C19 (Homo sapiens, UniProt P33261); assay: Cytochrome panel assay with activity outcomes. Panel member name: p450-cyp2c19 Compounds with AC50 equal or less than 10 uM are considered active; assay type: functional; settings: read-out: AC50
[4] = target: Delta-type opioid receptor (Homo sapiens, UniProt P41143); assay: Counterscreen for agonists of heterodimerization of the mu 1 (OPRM1) and delta 1 (OPRD1) opioid receptors: Luminescence-based cell-based high throughput dose response assay to identify agonists of OPRD1 homodimerization. [Related pubchem assays (depositor defined):AID504326, AID504355, AID504692, AID504904, AID504905]; assay type: functional
Mu-type opioid receptor = Mu-type opioid receptor (Homo sapiens, UniProt P35372); assay: Counterscreen for agonists of heterodimerization of the mu 1 (OPRM1) and delta 1 (OPRD1) opioid receptors: Luminescence-based cell-based high throughput dose response assay to identify agonists of OPRM1 homodimerization.; assay type: functional;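 also: U2OS cells expressing OPRM1 and beta-arrestin as split beta-galactosidase partners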
[5] = target: 5-hydroxytryptamine receptor 5A (Homo sapiens, UniProt P47898); assay: Counterscreen for agonists of OPRM1-OPRD1 heterodimerization: luminescence-based cell-based high throughput dose response assay to identify agonists of 5-hydroxytryptamine (serotonin) 5A receptor (HTR5A). [Related pubchem assays (depositor defined):AID504326, AID504355, AID504692, AID504904, AID504905]; assay type: functional
Cytochrome P450 2D6 = Cytochrome P450 2D6 (Homo sapiens, UniProt P10635);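 also: CYP2D6 member of a cytochrome P450 panel assay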
Cytochrome P450 2C9 = Cytochrome P450 2C9 (Homo sapiens, UniProt P11712)
Cysteine protease ATG4B = target: T3, Cysteine protease ATG4B (Homo sapiens, UniProt Q9Y4P1); assay type: functional;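 also: Fluorescence-based dose-response confirmation assay measuring inhibition of ATG4B activity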
T3 sequence (Q9Y4P1 whole entry): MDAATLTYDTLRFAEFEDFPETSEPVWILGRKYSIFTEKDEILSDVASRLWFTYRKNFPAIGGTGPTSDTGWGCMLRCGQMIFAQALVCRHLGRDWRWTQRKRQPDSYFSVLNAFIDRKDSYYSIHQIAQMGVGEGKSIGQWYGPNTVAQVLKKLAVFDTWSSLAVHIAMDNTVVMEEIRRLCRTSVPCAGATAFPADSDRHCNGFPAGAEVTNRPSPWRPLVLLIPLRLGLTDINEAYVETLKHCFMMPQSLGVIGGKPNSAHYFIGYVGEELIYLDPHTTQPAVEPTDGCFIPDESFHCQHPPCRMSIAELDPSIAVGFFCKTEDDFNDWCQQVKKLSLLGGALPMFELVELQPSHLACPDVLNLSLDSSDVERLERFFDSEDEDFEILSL

Phospholipase A2 = Phospholipase A2 (Homo sapiens, UniProt P04054); assay type: functional;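 also: confirmatory dose-response counterscreen on phospholipase A2, testing hits that came from an ultra-high-throughput screen for ATG4B inhibitors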
[6] = target: T4, Heat shock factor protein 1 (Mus musculus, UniProt P38532); assay: HSF1 potentiators in luciferase reporter cells, confirmation, cell-based, NIH3T3, luminescence, dose retest (AID 435004); assay type: functional;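 also: stress induced by proteasome inhibitor MG132 added 30 min after compound; luciferase reporter driven by HSF1 response element in NIH3T3 cells; actives raise luminescence as potentiators of the MG132 stress response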
T4 sequence (P38532 whole entry): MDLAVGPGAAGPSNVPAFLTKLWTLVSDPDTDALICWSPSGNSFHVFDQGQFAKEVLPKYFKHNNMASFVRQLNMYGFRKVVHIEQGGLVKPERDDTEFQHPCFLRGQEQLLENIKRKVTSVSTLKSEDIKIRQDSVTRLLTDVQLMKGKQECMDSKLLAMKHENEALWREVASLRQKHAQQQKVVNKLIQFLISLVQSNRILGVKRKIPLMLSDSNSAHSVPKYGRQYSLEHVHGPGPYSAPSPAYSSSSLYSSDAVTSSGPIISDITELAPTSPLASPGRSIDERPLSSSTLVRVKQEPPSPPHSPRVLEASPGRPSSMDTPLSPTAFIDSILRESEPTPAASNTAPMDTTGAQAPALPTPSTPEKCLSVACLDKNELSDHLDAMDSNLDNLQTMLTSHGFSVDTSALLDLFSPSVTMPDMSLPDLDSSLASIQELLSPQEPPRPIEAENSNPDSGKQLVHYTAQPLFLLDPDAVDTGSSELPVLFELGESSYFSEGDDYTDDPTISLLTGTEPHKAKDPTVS

[7] = target: T5, RNA-binding protein pos-1 (Caenorhabditis elegans, UniProt G5EF15); assay: inhibitors of POS-1/mex-3 RNA binding, dose response, biochemical, fluorescence polarization (AID 1964);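 also: purified POS-1 fused to maltose binding protein made in E. coli; potency of compounds blocking POS-1 binding to fluorescent RNA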
T5 sequence (G5EF15 whole entry): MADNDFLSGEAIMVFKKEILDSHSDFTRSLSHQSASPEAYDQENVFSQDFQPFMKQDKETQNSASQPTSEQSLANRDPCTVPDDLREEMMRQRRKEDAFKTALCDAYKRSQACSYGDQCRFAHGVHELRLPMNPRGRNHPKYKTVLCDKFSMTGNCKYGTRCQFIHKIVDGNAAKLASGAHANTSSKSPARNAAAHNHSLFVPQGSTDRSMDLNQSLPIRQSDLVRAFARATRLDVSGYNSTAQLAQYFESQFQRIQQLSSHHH

[8] = target: T6, Zinc finger protein mex-5 (Caenorhabditis elegans, UniProt Q9XUB2); assay: MEX-5/TCR-2 RNA interaction inhibitors, dose response, biochemical, C. elegans, fluorescence polarization (AID 1960)
T6 sequence (Q9XUB2 whole entry): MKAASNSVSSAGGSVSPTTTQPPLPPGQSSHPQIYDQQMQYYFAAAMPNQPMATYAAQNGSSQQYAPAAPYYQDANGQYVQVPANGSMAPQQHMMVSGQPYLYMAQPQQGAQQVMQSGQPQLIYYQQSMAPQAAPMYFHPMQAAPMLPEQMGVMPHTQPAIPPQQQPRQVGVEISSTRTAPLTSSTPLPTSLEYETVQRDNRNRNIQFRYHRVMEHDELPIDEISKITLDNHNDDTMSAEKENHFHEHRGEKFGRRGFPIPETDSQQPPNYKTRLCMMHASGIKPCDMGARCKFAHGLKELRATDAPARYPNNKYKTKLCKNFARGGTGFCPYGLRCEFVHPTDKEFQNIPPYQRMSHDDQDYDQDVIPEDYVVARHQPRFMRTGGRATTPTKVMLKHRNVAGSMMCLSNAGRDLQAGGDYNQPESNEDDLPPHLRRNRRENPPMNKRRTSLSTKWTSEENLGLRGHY

Beta-galactosidase = Beta-galactosidase (Escherichia coli, UniProt Q8VNN2); assay: PubChem AID 485352; assay type: functional
[9] = target: T7, Type-1 angiotensin II receptor (Homo sapiens, UniProt P30556); assay: AT1 receptor antagonists, dose response, selectivity assay for APJ receptor antagonist project, cell-based, uHTS hits (AID 463214); assay type: functional;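 also: antagonist potency against angiotensin II stimulated AT1 response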
T7 sequence (P30556 whole entry): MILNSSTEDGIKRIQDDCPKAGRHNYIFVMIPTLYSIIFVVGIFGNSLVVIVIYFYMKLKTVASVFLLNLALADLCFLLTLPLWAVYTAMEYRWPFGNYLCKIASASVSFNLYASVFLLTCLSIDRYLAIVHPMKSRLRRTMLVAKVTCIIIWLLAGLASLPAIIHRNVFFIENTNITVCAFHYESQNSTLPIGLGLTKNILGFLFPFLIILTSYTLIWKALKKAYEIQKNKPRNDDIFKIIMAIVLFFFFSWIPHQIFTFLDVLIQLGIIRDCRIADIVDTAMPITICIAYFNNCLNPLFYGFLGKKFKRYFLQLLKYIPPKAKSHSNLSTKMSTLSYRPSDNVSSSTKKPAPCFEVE

DNA topoisomerase = target: T8, DNA topoisomerase (Yersinia pestis, UniProt A0A2S9PM60); assay: Y. pestis Topo-I inhibitors, cleavage product readout, dose response, biochemical, cherry-pick (AID 588525)
T8 sequence (A0A2S9PM60 whole entry): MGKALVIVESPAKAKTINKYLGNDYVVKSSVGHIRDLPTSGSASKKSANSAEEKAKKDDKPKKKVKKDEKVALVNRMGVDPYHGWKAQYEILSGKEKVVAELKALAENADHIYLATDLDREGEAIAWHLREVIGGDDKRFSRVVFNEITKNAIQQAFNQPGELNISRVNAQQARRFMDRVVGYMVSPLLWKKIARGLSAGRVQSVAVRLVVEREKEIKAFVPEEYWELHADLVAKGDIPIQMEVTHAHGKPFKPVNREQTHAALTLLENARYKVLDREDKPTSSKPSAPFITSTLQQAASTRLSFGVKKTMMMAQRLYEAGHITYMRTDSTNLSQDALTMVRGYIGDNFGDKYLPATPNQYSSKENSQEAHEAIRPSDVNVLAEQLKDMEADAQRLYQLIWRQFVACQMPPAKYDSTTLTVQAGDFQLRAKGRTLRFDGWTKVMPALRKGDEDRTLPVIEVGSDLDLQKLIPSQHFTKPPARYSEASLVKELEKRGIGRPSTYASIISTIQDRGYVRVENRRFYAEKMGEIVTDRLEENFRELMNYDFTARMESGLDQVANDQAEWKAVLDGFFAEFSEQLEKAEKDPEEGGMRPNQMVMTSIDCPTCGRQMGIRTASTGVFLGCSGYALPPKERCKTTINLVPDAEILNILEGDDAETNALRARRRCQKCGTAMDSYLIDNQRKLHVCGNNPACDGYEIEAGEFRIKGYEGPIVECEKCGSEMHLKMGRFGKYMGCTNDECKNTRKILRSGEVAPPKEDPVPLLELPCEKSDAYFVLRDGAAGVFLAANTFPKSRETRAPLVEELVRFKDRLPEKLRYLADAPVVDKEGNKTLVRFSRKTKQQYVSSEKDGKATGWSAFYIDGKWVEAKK

[10] = HEp-2 cell cytotoxicity, dose response, cytotoxicity control for RSV inhibitor project, HTS (AID 2410); assay type: functional; settings: human respiratory syncytial virus

Phospholipase A2, sequence (P04054 whole entry): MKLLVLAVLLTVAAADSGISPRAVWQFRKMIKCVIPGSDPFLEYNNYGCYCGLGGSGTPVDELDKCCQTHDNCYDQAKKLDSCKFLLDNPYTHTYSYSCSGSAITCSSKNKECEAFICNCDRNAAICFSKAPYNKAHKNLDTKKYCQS
Beta-galactosidase, sequence (Q8VNN2 whole entry): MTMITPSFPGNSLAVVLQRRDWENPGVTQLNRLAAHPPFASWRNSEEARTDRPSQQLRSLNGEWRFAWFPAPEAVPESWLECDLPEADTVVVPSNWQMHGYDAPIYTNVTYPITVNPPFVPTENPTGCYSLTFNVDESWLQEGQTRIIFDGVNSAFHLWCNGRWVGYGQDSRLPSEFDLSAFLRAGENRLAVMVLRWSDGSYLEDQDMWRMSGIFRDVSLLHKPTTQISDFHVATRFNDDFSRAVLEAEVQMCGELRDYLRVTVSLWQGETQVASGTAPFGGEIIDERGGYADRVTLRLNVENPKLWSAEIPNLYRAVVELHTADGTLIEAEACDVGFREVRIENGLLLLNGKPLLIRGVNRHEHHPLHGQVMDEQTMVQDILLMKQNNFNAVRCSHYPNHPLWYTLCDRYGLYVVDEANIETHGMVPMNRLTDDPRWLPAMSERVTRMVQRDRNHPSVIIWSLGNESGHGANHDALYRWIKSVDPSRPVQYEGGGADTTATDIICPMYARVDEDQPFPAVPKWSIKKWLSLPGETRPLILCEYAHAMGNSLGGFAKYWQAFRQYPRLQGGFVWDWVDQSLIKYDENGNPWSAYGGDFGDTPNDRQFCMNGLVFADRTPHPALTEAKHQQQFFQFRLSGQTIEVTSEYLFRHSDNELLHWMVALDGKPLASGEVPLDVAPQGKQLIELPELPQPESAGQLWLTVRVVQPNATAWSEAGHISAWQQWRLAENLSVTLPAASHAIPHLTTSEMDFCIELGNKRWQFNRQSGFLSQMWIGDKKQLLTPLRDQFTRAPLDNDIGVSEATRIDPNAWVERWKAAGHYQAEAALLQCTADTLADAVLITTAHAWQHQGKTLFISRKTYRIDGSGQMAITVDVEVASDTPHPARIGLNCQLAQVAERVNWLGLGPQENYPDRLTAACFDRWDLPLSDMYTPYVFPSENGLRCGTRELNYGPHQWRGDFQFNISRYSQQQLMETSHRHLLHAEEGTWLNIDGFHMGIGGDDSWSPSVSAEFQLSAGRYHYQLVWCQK
Cytochrome P450 2D6, sequence (P10635 whole entry): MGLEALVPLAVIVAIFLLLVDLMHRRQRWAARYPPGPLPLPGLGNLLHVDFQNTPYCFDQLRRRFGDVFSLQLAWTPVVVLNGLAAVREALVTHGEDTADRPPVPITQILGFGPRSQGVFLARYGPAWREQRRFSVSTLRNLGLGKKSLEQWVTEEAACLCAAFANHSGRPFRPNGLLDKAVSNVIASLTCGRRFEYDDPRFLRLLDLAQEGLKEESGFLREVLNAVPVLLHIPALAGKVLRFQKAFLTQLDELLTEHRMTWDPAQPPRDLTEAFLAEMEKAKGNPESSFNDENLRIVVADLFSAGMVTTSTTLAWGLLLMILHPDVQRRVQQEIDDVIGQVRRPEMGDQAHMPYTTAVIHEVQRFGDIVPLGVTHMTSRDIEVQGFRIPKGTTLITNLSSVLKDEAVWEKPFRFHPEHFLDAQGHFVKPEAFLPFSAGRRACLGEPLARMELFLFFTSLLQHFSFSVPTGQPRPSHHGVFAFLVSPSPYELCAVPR
Cytochrome P450 2C9, sequence (P11712 whole entry): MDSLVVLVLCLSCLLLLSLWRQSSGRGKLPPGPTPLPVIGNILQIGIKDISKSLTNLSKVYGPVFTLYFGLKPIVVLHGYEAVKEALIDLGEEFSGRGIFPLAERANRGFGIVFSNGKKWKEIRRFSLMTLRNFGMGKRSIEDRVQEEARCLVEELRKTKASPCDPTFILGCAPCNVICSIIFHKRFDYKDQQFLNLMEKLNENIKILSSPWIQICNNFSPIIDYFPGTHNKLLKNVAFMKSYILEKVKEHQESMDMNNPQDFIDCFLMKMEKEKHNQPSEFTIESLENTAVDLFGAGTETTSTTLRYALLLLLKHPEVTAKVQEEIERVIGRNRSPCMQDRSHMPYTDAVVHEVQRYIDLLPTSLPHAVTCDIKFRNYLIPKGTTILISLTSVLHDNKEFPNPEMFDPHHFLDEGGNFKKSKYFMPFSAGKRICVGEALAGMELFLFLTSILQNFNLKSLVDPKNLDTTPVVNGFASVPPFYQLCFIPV
Cytochrome P450 2C19, sequence (P33261 whole entry): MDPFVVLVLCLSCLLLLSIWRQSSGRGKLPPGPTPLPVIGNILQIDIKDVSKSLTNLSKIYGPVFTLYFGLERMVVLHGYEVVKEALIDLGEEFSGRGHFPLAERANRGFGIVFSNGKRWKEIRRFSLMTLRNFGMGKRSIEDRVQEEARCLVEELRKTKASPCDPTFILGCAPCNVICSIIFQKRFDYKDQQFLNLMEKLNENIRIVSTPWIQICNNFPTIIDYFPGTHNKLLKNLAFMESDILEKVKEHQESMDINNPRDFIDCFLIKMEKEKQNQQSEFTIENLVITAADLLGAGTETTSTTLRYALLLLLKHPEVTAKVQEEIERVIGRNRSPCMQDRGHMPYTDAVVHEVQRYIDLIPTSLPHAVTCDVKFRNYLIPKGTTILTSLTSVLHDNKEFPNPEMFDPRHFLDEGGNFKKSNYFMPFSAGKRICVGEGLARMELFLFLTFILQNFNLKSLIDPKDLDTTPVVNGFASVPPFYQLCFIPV
5-hydroxytryptamine receptor 5A, sequence (P47898 whole entry): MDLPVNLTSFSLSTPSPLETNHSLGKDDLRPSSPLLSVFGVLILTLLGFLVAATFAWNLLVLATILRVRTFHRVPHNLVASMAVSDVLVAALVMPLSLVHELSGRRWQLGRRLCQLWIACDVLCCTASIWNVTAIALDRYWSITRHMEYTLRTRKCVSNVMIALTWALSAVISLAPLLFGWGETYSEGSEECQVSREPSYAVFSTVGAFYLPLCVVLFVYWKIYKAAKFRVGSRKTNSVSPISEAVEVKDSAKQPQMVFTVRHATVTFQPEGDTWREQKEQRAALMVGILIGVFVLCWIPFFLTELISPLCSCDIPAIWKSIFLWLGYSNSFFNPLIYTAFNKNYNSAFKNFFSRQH
Delta-type opioid receptor, sequence (P41143 whole entry): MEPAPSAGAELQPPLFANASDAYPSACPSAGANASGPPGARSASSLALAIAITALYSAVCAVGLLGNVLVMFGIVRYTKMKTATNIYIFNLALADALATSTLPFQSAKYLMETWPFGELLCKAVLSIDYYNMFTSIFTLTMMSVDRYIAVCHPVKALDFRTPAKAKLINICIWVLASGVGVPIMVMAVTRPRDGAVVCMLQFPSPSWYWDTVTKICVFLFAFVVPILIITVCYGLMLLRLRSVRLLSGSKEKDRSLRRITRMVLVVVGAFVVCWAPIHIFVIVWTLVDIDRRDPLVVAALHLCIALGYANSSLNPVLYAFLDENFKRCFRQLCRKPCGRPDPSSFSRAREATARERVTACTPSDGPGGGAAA
Mu-type opioid receptor, sequence (P35372 whole entry): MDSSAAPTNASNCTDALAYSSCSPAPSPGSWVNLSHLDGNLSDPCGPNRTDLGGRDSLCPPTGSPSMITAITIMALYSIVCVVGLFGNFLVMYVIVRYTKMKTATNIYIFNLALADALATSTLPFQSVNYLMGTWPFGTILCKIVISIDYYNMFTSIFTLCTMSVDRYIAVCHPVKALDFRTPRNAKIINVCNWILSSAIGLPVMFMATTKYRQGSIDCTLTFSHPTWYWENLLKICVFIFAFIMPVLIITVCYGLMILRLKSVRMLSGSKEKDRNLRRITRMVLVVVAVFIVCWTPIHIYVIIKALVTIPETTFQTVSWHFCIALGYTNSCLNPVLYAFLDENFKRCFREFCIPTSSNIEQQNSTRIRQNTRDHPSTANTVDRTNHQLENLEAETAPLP

Compound: Cc1ccc(C2=C/C(=C/c3cccs3)C(=O)O2)cc1
- EC50 [1]: > 99 µM (inactive)
- EC50 [2]: 28.2 µM (inactive)

Compound: N#Cc1ccc(-c2cccnc2)nc1SCC(=O)c1ccccc1
- EC50 [1]: 23.3 µM (inactive)
- EC50 [2]: 35.9 µM (inactive)

Compound: CN(C)C(CNC(=O)NC1CCCCC1)c1cccnc1 (configuration not stated)
- EC50 [3]: 0.06 µM (active)
- AC50 (Cytochrome P450 2C19): 25.1 µM (inconclusive)
- EC50 [4]: > 92.5 µM (inactive)
- EC50 (Mu-type opioid receptor): > 92.5 µM (inactive)
- EC50 [5]: > 92.5 µM (inactive)
- AC50 (Cytochrome P450 2D6): 31.6 µM (inconclusive)
- AC50 (Cytochrome P450 2C9): 0.398 µM (inconclusive)

Compound: O=C(O)c1ccc(C[n+]2c(-c3ccccc3)csc2Nc2ccccc2)cc1
- IC50 (Cysteine protease ATG4B): 15.1 µM (active)
- IC50 (Phospholipase A2): > 80 µM (inactive)

Compound: NC(=O)c1ccc(C(F)(F)F)n(Cc2cccc(Cl)c2)c1=O
- EC50 [6]: > 260 µM (inactive)
- IC50 (Cysteine protease ATG4B): 26.3 µM (inactive)
- IC50 (Phospholipase A2): 3.93 µM (active)

Compound: COc1ccc(/C=C/c2nc3sc4c(c3c(=O)o2)CCC4)cc1
- EC50 [7]: 6.97 µM (inconclusive)
- EC50 [8]: 125 µM (inconclusive)
- EC50 [1]: 46.6 µM (inactive)
- EC50 [2]: > 99 µM (inactive)

Compound: O=C(c1ccc(-n2c(SCc3cc(F)ccc3F)nc3ccccc3c2=O)cc1)N1CCOCC1
- IC50 (Cysteine protease ATG4B): 8.7 µM (active)
- IC50 (Phospholipase A2): 11.7 µM (active)

Compound: Cc1ccc(C(=O)CNc2cccc(Cl)c2)cc1
- EC50 (Beta-galactosidase): > 40 µM (inactive)
- IC50 [9]: 9.87 µM (active)
- AC50 (DNA topoisomerase): 21.7 µM (active)

Compound: O=C1CN(C(=O)CSc2nc3cc(Cl)ccc3c(=O)n2Cc2ccccc2)c2ccccc2N1
- CC50 [10]: 46.4 µM (active)
- AC50 (DNA topoisomerase): 9.89 µM (active)
